Source: paper PMC7554048, “FBI-1 enhanced the resistance of triple-negative breast cancer cells to chemotherapeutic agents via the miR-30c/PXR axis” (Cell Death & Disease, 2020)
Like-named read-outs stand apart in the source and are kept apart here.

Tests used:
[1] = Olaparib sustained in cultured TNBC cells, LC-MS/MS (half-life); type: in vitro ADME, human; details: human
Experimental: (§1) TNBC cells transfected with plasmids were used for the pharmacokinetic experiments to examine the amount of olaparib sustained in the cells. For the cell-based experiments, cells were treated with 1 μmol/L concentration of olaparib for 12 h[33]. Then, cells were harvested at indicated time-points. For the animal experiments, TNBC cells were injected into the subcutaneous position to form subcutaneous tumor tissues. After 2–3 weeks’ growth, when the tumor volumes reached 1500–2000 mm^3, the solution of olaparib was injected into the subcutaneous tumors. Then, the tumor tissues were harvested at indicated times[34],[35]. The olaparib in cells or tumor tissues was extracted by acetonitrile (ACN), and the amount of olaparib sustained in cells or tumor tissues at each time point was determined by liquid chromatography–mass spectrometry/mass spectrometry (LC-MS/MS), following the methods established by Krens et al.[36]. The sustaining rates of olaparib were calculated as (the amount of olaparib at each time)/(the amount of olaparib at 0-time) × 100%. The sustaining curves or the half-time life (t1/2) of olaparib was obtained by the sustained rates of olaparib.

TNBC PDC No. 3 = test: In vivo antitumor effect of olaparib on subcutaneous TNBC tumors; details: nude mice, oral administration once every two days, 4–5 weeks
Experimental: Female nude mice, 4–6 weeks old, were purchased from Beijing Si-Bei-Fu Corporation, China. The animal experiments were approved by the Institutional Animal Care and Use Committee of the Chinese PLA General Hospital, China. All animal experiments (n = 10 for each group; animals were randomly divided into the groups) were performed according to the UK Animals (Scientific Procedures) Act, 1986, and associated guidelines. TNBC cells transfected with plasmids were treated with olaparib via oral administration once every two days. After 4–5 weeks’ treatment, the tumor tissues of the mice were harvested. The tumor volumes or tumor weights were determined following the methods described by Jia et al.[37]. The inhibition rates of olaparib were calculated by the tumor volumes or tumor weights.

[2] = Olaparib sustained in subcutaneous TNBC tumors after intratumoral injection, LC-MS/MS (half-life); type: in vivo, nude mice; details: nude, mouse, subcutaneous tumor tissue, other: injected into the subcutaneous tumors (intratumoral), read-out: Half life values of olaparib (t1/2) In subcutaneous tumors (converted)
Experimental: as §1

PDC No. 2 = test: Cell-survival SRB assay; type: cell-based; details: Homo sapiens, 48 h, read-out: IC50 values of olparib
Experimental: (§2) The TNBC cells were treated with the indicated concentration of agents (10, 3, 1, 0.3, 0.1, 0.03, or 0.01 μmol/L for olaparib) for 48 h. Then, cells were analyzed by the Sulforhodamine B (SRB) assay, following the methods provided by and Li et al.[23] and Guan et al.[24]. The relative survival cells were determined by the O.D. values (optical density values) at 510 nm. […] The IC50 values of agents were calculated from the inhibition rates[23],[24]. The colony formation experiments were performed following the method desicripted by Fang et al.[5]. TNBC cells were transfected with the plasmids and treated with solvent control or the olaparib. The cells were analyzed by the colony-formation.

PDC No. 3 = test: Cell-survival SRB assay; type: cell-based; details: Homo sapiens, 48 h, read-out: IC50 values of olparib
Experimental: as §2

PDC No. 9 = test: Cell-survival SRB assay; type: cell-based; details: Homo sapiens, 48 h, read-out: IC50 values of olparib
Experimental: as §2

HCC-1937 = test: Cell-survival SRB assay; type: cell-based; details: Homo sapiens, HCC1937, 48 h, read-out: The IC50 values of olaparib
Experimental: as §2

PDC No. 7 = test: Cell-survival SRB assay; type: cell-based; details: Homo sapiens, 48 h, read-out: IC50 values of olparib
Experimental: as §2

PDC No. 6 = test: Cell-survival SRB assay; type: cell-based; details: Homo sapiens, 48 h, read-out: IC50 values of olparib
Experimental: as §2

MDA-MB-436 = test: Cell-survival SRB assay; type: cell-based; details: Homo sapiens, MDA-MB-436, 48 h, read-out: The IC50 values of olaparib
Experimental: as §2

half-life at 1 μmol/L ([1]; HCC-1937, FBI-1 + miR-30c, read-out: half life values of olaparib (t1/2) (converted)): 57.3 ± 8.91 h | half-life at 1 μmol/L ([1]; HCC-1937 TNBC cells, HCC-1937, FBI-1, read-out: half life values of olaparib (t1/2) (converted)): 9.44 ± 0.57 h | half-life at 1 μmol/L ([1]; HCC-1937 TNBC cells, HCC-1937, control, read-out: half life values of olaparib (t1/2) (converted)): 31.2 ± 4.67 h | half-life at 1 μmol/L ([1]; HCC-1937 TNBC cells, HCC-1937, miR-30c + PXR^Mut, read-out: half life values of olaparib (t1/2) (converted)): 8.55 ± 0.3 h | half-life at 1 μmol/L ([1]; HCC-1937 TNBC cells, HCC-1937, miR-30c, read-out: half life values of olaparib (t1/2) (converted)): 68.3 ± 13.4 h | half-life at 1 μmol/L ([1]; HCC-1937 TNBC cells, HCC-1937, siFBI-1 + miR-30c inhibitor, read-out: half life values of olaparib (t1/2) (converted)): 18.6 ± 4.08 h | half-life at 1 μmol/L ([1]; HCC-1937 TNBC cells, HCC-1937, siFBI-1, read-out: half life values of olaparib (t1/2) (converted)): 50.2 ± 5.62 h | half-life at 1 μmol/L ([1]; MDA-MB-436, FBI-1 + miR-30c, read-out: half life values of olaparib (t1/2) (converted)): 44.1 ± 5.75 h | half-life at 1 μmol/L ([1]; MDA-MB-436 TNBC cells, MDA-MB-436, FBI-1, read-out: half life values of olaparib (t1/2) (converted)): 13.4 ± 2.75 h | half-life at 1 μmol/L ([1]; MDA-MB-436 TNBC cells, MDA-MB-436, control, read-out: half life values of olaparib (t1/2) (converted)): 28.9 ± 4.32 h | half-life at 1 μmol/L ([1]; MDA-MB-436 TNBC cells, MDA-MB-436, miR-30c + PXR^Mut, read-out: half life values of olaparib (t1/2) (converted)): 11.2 ± 4.33 h | half-life at 1 μmol/L ([1]; MDA-MB-436 TNBC cells, MDA-MB-436, miR-30c, read-out: half life values of olaparib (t1/2) (converted)): 51.3 ± 7.14 h | half-life at 1 μmol/L ([1]; MDA-MB-436 TNBC cells, MDA-MB-436, siFBI-1 + miR-30c inhibitor, read-out: half life values of olaparib (t1/2) (converted)): 20.3 ± 5.48 h | half-life at 1 μmol/L ([1]; MDA-MB-436 TNBC cells, MDA-MB-436, siFBI-1, read-out: half life values of olaparib (t1/2) (converted)): 47.3 ± 7.42 h | half-life at 1 μmol/L ([1]; TNBC cells PDC No. 2, PDC No. 2, Control, read-out: Half life values of olaparib (t1/2) In cultured cells (converted)): 21.7 ± 6.89 h | half-life at 1 μmol/L ([1]; TNBC cells PDC No. 2, PDC No. 2, siFBI-1, read-out: Half life values of olaparib (t1/2) In cultured cells (converted)): 60.8 ± 4.85 h | half-life at 1 μmol/L ([1]; TNBC cells PDC No. 3, PDC No. 3, Control (Table 3), read-out: Half life values of olaparib (t1/2) In cultured cells (converted)): 25 ± 7.82 h | half-life at 1 μmol/L ([1]; TNBC cells PDC No. 3, PDC No. 3, Control (Table 4), read-out: Half-life values of olparib (t1/2) (converted)): 27.4 ± 4.3 h | half-life at 1 μmol/L ([1]; TNBC cells PDC No. 3, PDC No. 3, FBI-1 (Table 3), read-out: Half life values of olaparib (t1/2) In cultured cells (converted)): 11.7 ± 3.88 h | half-life at 1 μmol/L ([1]; TNBC cells PDC No. 3, PDC No. 3, FBI-1 (Table 4), read-out: Half-life values of olparib (t1/2) (converted)): 10.6 ± 4.54 h | half-life at 1 μmol/L ([1]; TNBC cells PDC No. 3, PDC No. 3, siFBI-1, read-out: Half life values of olaparib (t1/2) In cultured cells (converted)): 59.2 ± 8.91 h | half-life at 1 μmol/L ([1]; TNBC cells PDC No. 3, with ketoconazole (concentration not stated), PDC No. 3, FBI-1 + ketoconazole, read-out: Half-life values of olparib (t1/2) (converted)): 26.2 ± 3.85 h | half-life at 1 μmol/L ([1]; TNBC cells PDC No. 6, PDC No. 6, Control, read-out: Half life values of olaparib (t1/2) In cultured cells (converted)): 19.4 ± 5.83 h | half-life at 1 μmol/L ([1]; TNBC cells PDC No. 6, PDC No. 6, siFBI-1, read-out: Half life values of olaparib (t1/2) In cultured cells (converted)): 51.4 ± 11.5 h | half-life at 1 μmol/L ([1]; TNBC cells PDC No. 7, PDC No. 7, Control, read-out: Half life values of olaparib (t1/2) In cultured cells (converted)): 21 ± 5.01 h | half-life at 1 μmol/L ([1]; TNBC cells PDC No. 7, PDC No. 7, siFBI-1, read-out: Half life values of olaparib (t1/2) In cultured cells (converted)): 55.5 ± 9.97 h | half-life at 1 μmol/L ([1]; TNBC cells PDC No. 9, PDC No. 9, Control (Table 3), read-out: Half life values of olaparib (t1/2) In cultured cells (converted)): 33.8 ± 5.5 h | half-life at 1 μmol/L ([1]; TNBC cells PDC No. 9, PDC No. 9, Control (Table 4), read-out: Half-life values of olparib (t1/2) (converted)): 36.3 ± 6.64 h | half-life at 1 μmol/L ([1]; TNBC cells PDC No. 9, PDC No. 9, FBI-1 (Table 3), read-out: Half life values of olaparib (t1/2) In cultured cells (converted)): 18.1 ± 4.44 h | half-life at 1 μmol/L ([1]; TNBC cells PDC No. 9, PDC No. 9, FBI-1 (Table 4), read-out: Half-life values of olparib (t1/2) (converted)): 14.9 ± 2.88 h | half-life at 1 μmol/L ([1]; TNBC cells PDC No. 9, with ketoconazole (concentration not stated), PDC No. 9, FBI-1 + ketoconazole, read-out: Half-life values of olparib (t1/2) (converted)): 37.8 ± 5.55 h | half-life ([2]; PDC No. 2, Control): 30.1 ± 6.81 h | half-life ([2]; PDC No. 2, siFBI-1): 53.7 ± 7.34 h | half-life ([2]; PDC No. 3, Control): 32.2 ± 9.21 h | half-life ([2]; PDC No. 3, FBI-1): 17.9 ± 8.65 h | half-life ([2]; PDC No. 3, siFBI-1): 62.7 ± 6.77 h | half-life ([2]; PDC No. 6, Control): 28.6 ± 9.84 h | half-life ([2]; PDC No. 6, siFBI-1): 43.6 ± 7.72 h | half-life ([2]; PDC No. 7, Control): 31.4 ± 9.95 h | half-life ([2]; PDC No. 7, siFBI-1): 58.2 ± 9.06 h | half-life ([2]; PDC No. 9, Control): 36.1 ± 8.33 h | half-life ([2]; PDC No. 9, FBI-1): 22.6 ± 4.36 h
Structure (SMILES): O=C(c1cc(Cc2n[nH]c(=O)c3ccccc23)ccc1F)N1CCN(C(=O)C2CC2)CC1 [olaparib]
subcutaneous growth of TNBC cells (TNBC PDC No. 3): inhibited the subcutaneous growth of TNBC cells | IC50 (PDC No. 2; PDC No. 2, control): 1320 ± 250 nM | IC50 (PDC No. 2; PDC No. 2, siFBI-1, 48 h): 220 ± 20 nM | IC50 (PDC No. 3; PDC No. 3, FBI-1, 48 h): 8750 ± 1000 nM | IC50 (PDC No. 3; PDC No. 3, control): 940 ± 100 nM | IC50 (PDC No. 3; PDC No. 3, ketoconazole + FBI-1, 48 h): 630 ± 110 nM | IC50 (PDC No. 3; PDC No. 3, siFBI-1, 48 h): 100 ± 50 nM | IC50 (PDC No. 9; PDC No. 9, FBI-1, 48 h): 9880 ± 650 nM | IC50 (PDC No. 9; PDC No. 9, control): 850 ± 330 nM | IC50 (PDC No. 9; PDC No. 9, ketoconazole + FBI-1, 48 h): 1640 ± 520 nM | IC50 (HCC-1937; HCC-1937, FBI-1 + miR-30c, 48 h): 240 ± 40 nM | IC50 (HCC-1937; HCC-1937, FBI-1, 48 h): 3700 ± 380 nM | IC50 (HCC-1937; HCC-1937, control, 48 h): 900 ± 330 nM | IC50 (HCC-1937; HCC-1937, miR-30c + PXR^Mut, 48 h): 4900 ± 820 nM | IC50 (HCC-1937; HCC-1937, miR-30c, 48 h): 100 ± 50 nM | IC50 (HCC-1937; HCC-1937, siFBI-1 + miR-30c inhibitor, 48 h): 2210 ± 510 nM | IC50 (HCC-1937; HCC-1937, siFBI-1, 48 h): 130 ± 80 nM | IC50 (PDC No. 7; PDC No. 7, control): 2040 ± 770 nM | IC50 (PDC No. 7; PDC No. 7, siFBI-1, 48 h): 330 ± 100 nM | IC50 (PDC No. 6; PDC No. 6, control): 1740 ± 820 nM | IC50 (PDC No. 6; PDC No. 6, siFBI-1, 48 h): 250 ± 40 nM | IC50 (MDA-MB-436; MDA-MB-436, FBI-1 + miR-30c, 48 h): 210 ± 20 nM | IC50 (MDA-MB-436; MDA-MB-436, FBI-1, 48 h): 2460 ± 790 nM | IC50 (MDA-MB-436; MDA-MB-436, control, 48 h): 790 ± 280 nM | IC50 (MDA-MB-436; MDA-MB-436, miR-30c + PXR^Mut, 48 h): 2750 ± 400 nM | IC50 (MDA-MB-436; MDA-MB-436, miR-30c, 48 h): 100 ± 30 nM | IC50 (MDA-MB-436; MDA-MB-436, siFBI-1 + miR-30c inhibitor, 48 h): 1820 ± 310 nM | IC50 (MDA-MB-436; MDA-MB-436, siFBI-1, 48 h): 140 ± 10 nM
